From patent publication US12569577B2, “PSMA-targeting imaging agents” (The Cleveland Clinic Foundation, priority 2019, dated 2026)
Where two headings read alike, the source gives them in different places. Blank lines part the entries; values can stand above or below the compound they belong to. *1 amine or outer side, *2 acyl side, *3 side chain or, on linkers, in order; H or OH if unused. Where a SMILES comes first, the peptide text is derived from it. The star is where a group is joined. DOTA = O=C(O)CN1CCN(CC(=O)O)CCN(CC(=O)*)CCN(CC(=O)O)CC1; γGlu = O=C(O)[CH](CCC(=O)[*:2])N[*:1]; CO = O=C([*:1])[*:2]; Ahx = NCCCCCC(=O)O

How the values were obtained:
[1] = target: T1, PSMA (Homo sapiens, UniProt Q04609); assay: Competitive binding assay: NAAG hydrolysis by PC3-PIP membranes, Amplex Red glutamic acid readout; format: biochemical; details: for EC50: PC3-PIP membranes
T1 construct: expressed in transfected cells; host or cells: PC3-PIP cells (washed membrane preparation after freeze/thaw)
T1 sequence (Q04609 whole entry): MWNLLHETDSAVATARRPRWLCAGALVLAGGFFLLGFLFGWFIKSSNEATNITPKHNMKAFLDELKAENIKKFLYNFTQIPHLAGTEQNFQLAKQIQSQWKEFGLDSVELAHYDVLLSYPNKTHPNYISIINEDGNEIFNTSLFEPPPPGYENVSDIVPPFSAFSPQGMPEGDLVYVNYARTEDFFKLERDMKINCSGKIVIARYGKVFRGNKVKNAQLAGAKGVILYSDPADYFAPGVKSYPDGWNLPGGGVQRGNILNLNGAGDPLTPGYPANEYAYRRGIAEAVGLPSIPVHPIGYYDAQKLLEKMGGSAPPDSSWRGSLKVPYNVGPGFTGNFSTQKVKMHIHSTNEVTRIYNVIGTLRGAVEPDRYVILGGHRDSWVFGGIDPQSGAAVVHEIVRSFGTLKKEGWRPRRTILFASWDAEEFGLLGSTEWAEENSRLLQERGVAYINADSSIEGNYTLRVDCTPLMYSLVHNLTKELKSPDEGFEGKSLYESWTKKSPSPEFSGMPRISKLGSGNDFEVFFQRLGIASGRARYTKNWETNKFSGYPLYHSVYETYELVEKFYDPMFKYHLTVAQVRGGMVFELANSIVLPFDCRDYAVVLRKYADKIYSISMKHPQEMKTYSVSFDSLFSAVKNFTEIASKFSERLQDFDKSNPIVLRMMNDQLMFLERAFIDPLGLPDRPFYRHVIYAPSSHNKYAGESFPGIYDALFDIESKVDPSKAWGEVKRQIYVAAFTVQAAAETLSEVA
Method: PC3-PIP PSMA-expressing cells were grown to confluency, harvested in 50 mM Tris-HCl (pH 7.5) and subjected to four freeze/thaw cycles. Cell membranes were washed three times by centrifugation at 12,000g or higher. The cell membranes were diluted to 50 mg/mL in 50 mM Tris-HCl (pH 7.5) (based on wet weight of the solid after centrifugation). Binding assays were conducted in 96 well plates. Phase 1 of the assay used wells containing 100 microliters 50 mM Tris-HCl (pH 7.5) with 4 microns NAAG and 10 microns of PC3-PIP membrane, to which differing concentrations of Compound 1 was added. The 96 well plate was incubated at 37° C. for 2 h. The glutamic acid concentration was measured with the Amplex Red glutamic acid assay kit (Invitrogen-Molecular Probes) using a fluorescent plate reader (530 nm excitation, 590 nm emission). The resulting fluorescence signals were normalized, and normalized fluorescence plotted against the concentration of ligand (log (nm)) (FIG. 1). EC50 was determined according to Eq. 1 (below). [formula]

[2] = tested on: prostate cancer lesions; details: cited from earlier work
[3] = 68Ga-labelled; Rousseau et al.; cited from earlier work

EC50 ([1]; NAAG substrate, 37° C. 2 h, FIG. 1): 287 ± 64 pM
Ki ([1]; calculated from the competitive binding assay, read-out: estimated Ki to PSMA): < 300 pM
SMILES: NC(=O)C(CCCCNC(=O)CN1CCN(CC(=O)O)CCN(CC(=O)O)CCN(CC(=O)O)CC1)NC(=O)C(Cc1ccc(O)cc1)NC(=O)C(CCC(=O)O)NC(=O)C(CCC(=O)O)NC(=O)C(CCC(=O)O)NC(=O)CCCCCNC(=O)CCC(NC(=O)NC(CCC(=O)O)C(=O)O)C(=O)O (stereo not shown) [Compound 1] ({Glu-CO-γGlu-Ahx}-EEEYK(DOTA)-NH2; configuration not given here)

EC50 ([1]; FIG. 2 and FIG. 3): ~100 pM
SMILES: O=C(O)CCC(NC(=O)NC(CCCCNC(=O)CCC(NC(=O)CCC(NC(=O)c1ccc(F)nc1)C(=O)O)C(=O)O)C(=O)O)C(=O)O (stereo not shown) [Compound 11]

EC50 ([1]; FIG. 2 and FIG. 3): 390 ± 20 pM
SMILES: O=C(O)CCC(NC(=O)NC(CCCCNC(=O)CCC(NC(=O)CCC(NC(=O)C(Cc1ccc(O)cc1)NC(=O)CN1CCN(CC(=O)O)CCN(CC(=O)O)CCN(CC(=O)O)CC1)C(=O)O)C(=O)O)C(=O)O)C(=O)O (stereo not shown) [Compound 14, E′K-E!E!Y-DOTA]

SMILES: O=C(O)CCc1ccc(O)c(CN(CCN(CC(=O)O)Cc2cc(CCC(=O)NCCCCCC(=O)NCCCC[C@H](NC(=O)N[C@@H](CCC(=O)O)C(=O)O)C(=O)O)ccc2O)CC(=O)O)c1 [PSMA 11, Glu-NH—CO—NH-Lys (Ahx)-[^68Ga(HBEDCC], metal not drawn]
(per patient) lesion detection rate ([2]; PSA <2.2 ng/ml): 60%
(per patient) lesion detection rate ([2]; PSA >2.2 ng/ml): 100%
Biodistribution Blood [3]: 0.31% ± 0.08%
Biodistribution Kidney [3]: 182% ± 33%
Biodistribution Liver [3]: 0.44% ± 0.13%
Biodistribution Muscle [3]: 0.54% ± 0.14%
Biodistribution Salivary Gland [3]: 10.00% ± 2.52%
Biodistribution Spleen [3]: 22.2% ± 7.91%
Biodistribution Tumor [3]: 8.67% ± 1.97%
